In PubChem BioAssay AID330 (DTP/NCI, 2004):
Values joined by “and” are separate entries in the source; they are usually repeats but may differ in a detail not shown here. Equal entries are not always repeated. Inconclusive results and toxic doses are left out. How the source made its calls: active means survival T/C of 150% or more; inactive means T/C below 125% in these data.

Test system: P388 leukemia ip, CD2F1 mice, survival T/C
Assay: NCI In Vivo Anticancer Drug Screen. Data for tumor model P388 Leukemia (intraperitoneal) in CD2F1 (CDF1) mice
Conditions: endpoint: median survival time, higher = longer survival
Summary of the method: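 Mice carrying the transplanted tumor received test compound or vehicle. Survival was recorded in each group, and the value is the treated-group measurement divided by that of the vehicle-treated control group.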

[1] = dose: 60.0 mg/kg/injection, schedule: Q01DX005 (ip), vehicle: Klucel (hydroxypropylcellulose) (HPC)
[2] = dose: 120.0 mg/kg/injection, schedule: Q01DX005 (ip), vehicle: Klucel (hydroxypropylcellulose) (HPC)
[3] = dose: 240.0 mg/kg/injection, schedule: Q01DX005 (ip), vehicle: Klucel (hydroxypropylcellulose) (HPC)
[4] = dose: 100.0 mg/kg/injection, schedule: Q01DX001 (ip), vehicle: saline with Tween-80
[5] = dose: 200.0 mg/kg/injection, schedule: Q01DX001 (ip), vehicle: saline with Tween-80
[6] = dose: 400.0 mg/kg/injection, schedule: Q01DX001 (ip), vehicle: saline with Tween-80
[7] = dose: 50.0 mg/kg/injection, schedule: Q01DX005 (ip), vehicle: saline with Tween-80
[8] = dose: 100.0 mg/kg/injection, schedule: Q01DX005 (ip), vehicle: saline with Tween-80
[9] = dose: 200.0 mg/kg/injection, schedule: Q01DX005 (ip), vehicle: saline with Tween-80
[10] = dose: 25.0 mg/kg/injection, schedule: Q01DX005 (ip), vehicle: Klucel (hydroxypropylcellulose) (HPC)
[11] = dose: 50.0 mg/kg/injection, schedule: Q01DX005 (ip), vehicle: Klucel (hydroxypropylcellulose) (HPC)
[12] = dose: 100.0 mg/kg/injection, schedule: Q01DX005 (ip), vehicle: Klucel (hydroxypropylcellulose) (HPC)
[13] = dose: 6.25 mg/kg/injection, schedule: Q01DX005 (ip), vehicle: Klucel (hydroxypropylcellulose) (HPC)
[14] = dose: 12.5 mg/kg/injection, schedule: Q01DX005 (ip), vehicle: Klucel (hydroxypropylcellulose) (HPC)
[15] = dose: 12.5 mg/kg/injection, schedule: Q01DX009 (ip), vehicle: water

Measured: T/C

CC1(C)OC(=O)N=C1c1ccc(F)cc1
inactive: [1] 102 % of control | [2] 107 % of control | [3] 111 % of control

O=c1[nH]c2ccccc2c(Oc2ccccc2)c1I
inactive: [1] 89 % of control | [2] 92 % of control | [3] 101 % of control

CNC(=O)NS(=O)(=O)c1cnccc1Cl
inactive: [4] 97 % of control | [5] 100 % of control | [6] 97 % of control

CCOc1cc2c(cc1C(C)c1ccc(Cl)cc1)OCO2 (stereo unspecified)
inactive: [7] 93 % of control | [8] 99 % of control | [9] 93 % of control

CC1(C)N=C(N)N=C(N)N1c1cccc(C(=O)O)c1
inactive: [10] 117 % of control | [11] 100 % of control | [12] 107 % of control

CCC(c1ccc(OC)cc1)C(NC(=S)Nc1ccc(Cl)cc1)c1ccc(OC)cc1 (stereo unspecified)
inactive: [4] 90 % of control | [5] 90 % of control | [6] 109 % of control

O=C1N2CCCC2(S)C(=O)N2CCCC12[S-].[Zn] (stereo unspecified)
inactive: dose: 12.5 mg/kg/injection, schedule: Q01DX009 (ip), vehicle: saline 95 % of control and 97 % of control | dose: 25.0 mg/kg/injection, schedule: Q01DX009 (ip), vehicle: saline 100 % of control and 90 % of control | dose: 50.0 mg/kg/injection, schedule: Q01DX009 (ip), vehicle: saline 108 % of control and 119 % of control | dose: 100.0 mg/kg/injection, schedule: Q01DX009 (ip), vehicle: saline 124 % of control and 95 % of control

C[N+](C)(C)CCCSc1nc2ccccc2[nH]1
inactive: dose: 0.13 mg/kg/injection, schedule: Q01DX009 (ip), vehicle: saline 95 % of control | dose: 0.25 mg/kg/injection, schedule: Q01DX009 (ip), vehicle: saline 103 % of control | dose: 0.5 mg/kg/injection, schedule: Q01DX009 (ip), vehicle: saline 103 % of control | dose: 1.0 mg/kg/injection, schedule: Q01DX009 (ip), vehicle: saline 104 % of control

FC(F)(F)C1(C(F)(F)F)OI2(Br)(OC(C(F)(F)F)(C(F)(F)F)c3ccccc32)c2ccccc21
inactive: [13] 99 % of control | [14] 97 % of control

Cc1oc(C)c2c1C(=O)N(C)C2=O
inactive: dose: 60.0 mg/kg/injection, schedule: Q01DX005 (ip), vehicle: saline with Tween-80 100 % of control | dose: 120.0 mg/kg/injection, schedule: Q01DX005 (ip), vehicle: saline with Tween-80 100 % of control | dose: 240.0 mg/kg/injection, schedule: Q01DX005 (ip), vehicle: saline with Tween-80 103 % of control

Cc1ccc(N)c(C(=O)Nc2ccc(Cl)cc2)c1
inactive: [7] 104 % of control | [8] 91 % of control | [9] 92 % of control

COc1cccc2c1C(=O)c1c(O)c3c(c(O)c1C2=O)C[C@@](O)(C(=O)CSc1ccccc1)C[C@@H]3OC1CC(N)C(O)C(C)O1 (stereo partly specified)
inactive: dose: 0.78 mg/kg/injection, schedule: Q01DX009 (ip), vehicle: water 122 % of control | [15] 99 % of control and 91 % of control

CN(C)CC1C(=O)C2CCC1C2 (stereo unspecified)
inactive: [7] 98 % of control | [8] 98 % of control | [9] 108 % of control

CCOC(=O)CC1(O)Oc2cc3c(cc2C(c2cc(OC)c(OC)c(OC)c2)C1C(=O)OCC)OCO3 (stereo unspecified)
inactive: [1] 87 % of control | [2] 89 % of control | [3] 88 % of control

O=C1c2ccccc2C(=O)c2c(NCCCNCCO)ccc(NCCCNCCO)c21
inactive: dose: 3.75 mg/kg/injection, schedule: Q01DX005 (ip), vehicle: other 104 % of control | dose: 6.25 mg/kg/injection, schedule: Q01DX009 (ip), vehicle: water 101 % of control | dose: 7.5 mg/kg/injection, schedule: Q01DX005 (ip), vehicle: other 111 % of control | dose: 7.5 mg/kg/injection, schedule: Q01DX009 (ip), vehicle: water 110 % of control | [15] 117 % of control | dose: 15.0 mg/kg/injection, schedule: Q01DX005 (ip), vehicle: other 119 % of control | dose: 15.0 mg/kg/injection, schedule: Q01DX009 (ip), vehicle: water 117 % of control | dose: 30.0 mg/kg/injection, schedule: Q01DX005 (ip), vehicle: other 120 % of control | dose: 100.0 mg/kg/injection, schedule: Q01DX009 (ip), vehicle: other 97 % of control | dose: 100.0 mg/kg/injection, schedule: Q01DX009 (ip), vehicle: water 99 % of control

CN(C)CCSc1nnc(N)s1
inactive: dose: 25.0 mg/kg/injection, schedule: Q01DX001 (ip), vehicle: saline 108 % of control | dose: 50.0 mg/kg/injection, schedule: Q01DX001 (ip), vehicle: saline 109 % of control | dose: 100.0 mg/kg/injection, schedule: Q01DX001 (ip), vehicle: saline 105 % of control and 109 % of control | dose: 200.0 mg/kg/injection, schedule: Q01DX001 (ip), vehicle: saline 94 % of control

CCC(C)CN1CCc2c3c(c(OC)c(OC)c2C1)CCC3 (stereo unspecified)
inactive: dose: 100.0 mg/kg/injection, schedule: Q04DX002 (ip), vehicle: saline 101 % of control | dose: 200.0 mg/kg/injection, schedule: Q04DX002 (ip), vehicle: saline 101 % of control

COc1cc2c(cc1OC)C(=O)c1nccc3ccc(OC)c(c13)O2
inactive: dose: 6.75 mg/kg/injection, schedule: Q01DX005 (ip), vehicle: Klucel (hydroxypropylcellulose) (HPC) 100 % of control | dose: 13.5 mg/kg/injection, schedule: Q01DX005 (ip), vehicle: Klucel (hydroxypropylcellulose) (HPC) 92 % of control | dose: 27.0 mg/kg/injection, schedule: Q01DX005 (ip), vehicle: Klucel (hydroxypropylcellulose) (HPC) 101 % of control | dose: 54.0 mg/kg/injection, schedule: Q01DX005 (ip), vehicle: Klucel (hydroxypropylcellulose) (HPC) 92 % of control

O=CC1N=C1c1ccccc1 (stereo unspecified)
inactive: dose: 100.0 mg/kg/injection, schedule: Q01DX001 (ip), vehicle: Klucel (hydroxypropylcellulose) (HPC) 88 % of control | dose: 200.0 mg/kg/injection, schedule: Q01DX001 (ip), vehicle: Klucel (hydroxypropylcellulose) (HPC) 90 % of control

C[CH2][Sn]([CH2]C)([CH2]CC(=O)OC)[CH2]CC(=O)OC
inactive: dose: 12.5 mg/kg/injection, schedule: Q01DX005 (ip), vehicle: saline 113 % of control | dose: 25.0 mg/kg/injection, schedule: Q01DX005 (ip), vehicle: saline 120 % of control | dose: 100.0 mg/kg/injection, schedule: Q01DX005 (ip), vehicle: saline 119 % of control

N#CC1C2C1C1C=CC2n2c(=O)n(-c3ccccc3)c(=O)n21 (stereo unspecified)
inactive: [13] 99 % of control | [14] 102 % of control | [10] 108 % of control and 98 % of control | [11] 99 % of control and 111 % of control

NC(=S)c1cccc(C=O)n1
inactive: dose: 25.0 mg/kg/injection, schedule: Q01DX009 (ip), vehicle: saline with Tween-80 99 % of control | dose: 50.0 mg/kg/injection, schedule: Q01DX009 (ip), vehicle: saline with Tween-80 99 % of control | dose: 50.0 mg/kg/injection, schedule: Q04DX003 (ip), vehicle: Klucel (hydroxypropylcellulose) (HPC) 110 % of control | dose: 100.0 mg/kg/injection, schedule: Q01DX009 (ip), vehicle: saline with Tween-80 97 % of control | dose: 100.0 mg/kg/injection, schedule: Q04DX003 (ip), vehicle: Klucel (hydroxypropylcellulose) (HPC) 112 % of control | dose: 200.0 mg/kg/injection, schedule: Q04DX003 (ip), vehicle: Klucel (hydroxypropylcellulose) (HPC) 114 % of control

COC1OC(COS(=O)(=O)c2ccc(C)cc2)C2OC(C)(C)OC12 (stereo unspecified)
inactive: [11] 95 % of control | [12] 100 % of control

COc1ccc(N=Nc2c(C)nn(C(=O)c3ccncc3)c2C)cc1
inactive: dose: 50.0 mg/kg/injection, schedule: Q01DX009 (ip), vehicle: Klucel (hydroxypropylcellulose) (HPC) 108 % of control | dose: 100.0 mg/kg/injection, schedule: Q01DX009 (ip), vehicle: Klucel (hydroxypropylcellulose) (HPC) 99 % of control | dose: 200.0 mg/kg/injection, schedule: Q01DX009 (ip), vehicle: Klucel (hydroxypropylcellulose) (HPC) 101 % of control

COC(C#N)c1ccccc1 (stereo unspecified)
inactive: dose: 6.25 mg/kg/injection, schedule: Q04DX003 (ip), vehicle: saline with Tween-80 100 % of control | dose: 12.5 mg/kg/injection, schedule: Q04DX003 (ip), vehicle: saline with Tween-80 100 % of control | dose: 25.0 mg/kg/injection, schedule: Q04DX003 (ip), vehicle: saline with Tween-80 108 % of control and 115 % of control and 91 % of control | dose: 25.0 mg/kg/injection, schedule: Q04DX003 (ip), vehicle: saline 98 % of control
